The text below walks through data of patent US4112105A, “Anti-inflammatory 3-(substituted-amino)-2,1-benzisothiazoles” (Sterling Drug Inc., priority 1977, dated 1978).

Counter-ions that a name gives are not always drawn.

A short description of data set [1]: inhibition of adjuvant-induced arthritis test. In kind it is in vivo. As for the experimental part:
Anti-inflammatory activity was determined using (1) the inhibition of carrageenin-induced foot edema test essentially described by Van Arman et al., J. Pharmocol. Exptl. Therap. […] J. Vet.
All test compounds were administered orally.

Data set [2] in a line: inhibition of carrageenin-induced foot edema test. The format is in vivo. The settings on record: for inhibition in vivo at 324 µmol/kg: 0.324 mMole/kg; for inhibition in vivo at 30 µmol/kg: 0.03 mMole/kg; for inhibition in vivo at 90 µmol/kg: 0.09 mMole/kg; for inhibition in vivo at 270 µmol/kg: 0.27 mMole/kg; for inhibition in vivo at 80 µmol/kg: 0.08 mMole/kg; for side effects (footnote e): oral, 4 hours post medication. The procedure: Anti-inflammatory activity was determined using (1) the inhibition of carrageenin-induced foot edema test essentially described by Van Arman et al., J. Pharmocol. Exptl. Therap. 150, 328 (1965) as a modification of the procedure of Winter et al., Proc. Soc. Exp. Biol. and Med. 111, 544 (1962) and (2) a modification of the inhibition of adjuvant-induced arthritis test described by Pearson, J. Chronic Diseases 16, 863 (1963) and Glenn et al., Am. J. Vet. Res. 26, 1180 (1965).
Representative examples of the compounds of this invention have been tested in the carrageenin edema and adjuvant arthritis tests as described hereinabove and found to have anti-inflammatory activity. Test data, given as percent inhibition at a dose expressed in millimoles (mMole/kg) are presented hereinbelow. All test compounds were administered orally.
The data for a number of examples are presented in several separate groups each representing the test results wherein anti-inflammatory activity was measured at one or more dose levels against a single set of controls.
A general note: In the carrageenan paw model, swelling and tenderness develop within hours.

For orientation: inhibition in vivo means the change of the read-out against control, counted positive when it falls. Turning to `CCN(CC)CCCC(C)NC(=O)c1ccc(Cl)cc1[N+](=O)[O-]` (stereo not shown) [Example 1B, 4-chloro-N-[4-(diethylamino)-1-methylbutyl]-2-nitrobenzamide], the inhibition in vivo at 324 µmol/kg in data set [1] (po, 0.324 mMole/kg) came out at 16%; in data set [2] (po), 29%.

Regarding `CCN(CC)CCCC(C)NC(=S)c1ccc(Cl)cc1[N+](=O)[O-].Cl` (stereo not shown) [Example 1C, 4-chloro-N-[4-(diethylamino)-1-methylbutyl]-2-nitrothiobenzamide hydrochloride], in data set [1] (oral, 0.324 mMole/kg), the “side effects (footnote b)” value is on record as “loss of hair, yellow urine”. The inhibition in vivo at 324 µmol/kg in data set [1] (po, 0.324 mMole/kg) was determined as 60%; in data set [2] (po), 38%.

With `CCN(CC)CCCC(C)N(C)c1snc2cc(Cl)ccc12` (stereo not shown) [Example 2C, 6-chloro-3-{[4-(diethylamino)-1-methylbutyl]methylamino}-2,1-benzisothiazole], the “toxicity in adjuvant arthritis test” value in data set [1] (oral, 0.324 mMole/kg) was “Toxic”. For the same molecule, the inhibition in vivo at 72 µmol/kg in data set [1] (po, 0.072 mMole/kg) is 0%. The inhibition in vivo at 324 µmol/kg in data set [2] (po) was determined as 71%.

As to `Clc1ccc2c(NCCN3CCCC3)snc2c1` [Example 3C, 6-chloro-3-{[2-(1-pyrrolidinyl)-ethyl]amino}-2,1-benzisothiazole], the inhibition in vivo at 324 µmol/kg in data set [1] (po, 0.324 mMole/kg) was found to be 14%. In data set [2] (po), the inhibition in vivo at 30 µmol/kg is 15%, the inhibition in vivo at 90 µmol/kg turned out to be 12% and the inhibition in vivo at 270 µmol/kg worked out at 32%. In addition, the inhibition in vivo at 320 µmol/kg in data set [2] (po, 0.32 mMole/kg) came to 29%. The inhibition in vivo at 640 µmol/kg in data set [2] (po, 0.64 mMole/kg) was determined as 52%.

`CN1CCN(C(=S)c2ccc(Cl)cc2[N+](=O)[O-])CC1` [Example 4B, 1-(4-chloro-2-nitrothiobenzoyl)-4-methylpiperazine]: the inhibition in vivo at 324 µmol/kg in data set [1] (po, 0.324 mMole/kg) was found to be 0%; in data set [2] (po), 28%.

Take `CN1CCN(c2snc3cc(Cl)ccc23)CC1` [Example 4C, 6-chloro-3-(4-methyl-1-piperazinyl)-2,1-benzisothiazole]: the inhibition in vivo at 324 µmol/kg in data set [1] (po, 0.324 mMole/kg) amounted to 10%; in data set [2] (po), 41%.

Take `CN(C)CCNC(=S)c1ccc(Cl)cc1[N+](=O)[O-]` [Example 5B, 4-chloro-N-[2-(dimethylamino)ethyl]-2-nitrothiobenzamide hydrochloride]: the inhibition in vivo at 324 µmol/kg in data set [1] (po, 0.324 mMole/kg) worked out at 2%; in data set [2] (po), 43%.

`CN(C)CCNc1snc2cc(Cl)ccc12` [Example 5C]: the inhibition in vivo at 324 µmol/kg in data set [1] (po, 0.324 mMole/kg) worked out at 0%. In addition, in data set [2] (po), the inhibition in vivo at 30 µmol/kg came to 19%, the inhibition in vivo at 90 µmol/kg was determined as 14%, the inhibition in vivo at 270 µmol/kg was determined as 29% and the inhibition in vivo at 324 µmol/kg stood at 28%.

In data set [2] (po), `CN(C)CCNc1snc2ccc(Cl)cc12` [Example 9] had an inhibition in vivo at 80 µmol/kg of 8% and an inhibition in vivo at 324 µmol/kg of 0%. Also, in data set [2] (po, 0.32 mMole/kg), the inhibition in vivo at 320 µmol/kg came out at 0%. Further, the inhibition in vivo at 640 µmol/kg in data set [2] (po, 0.64 mMole/kg) was determined as 23%.

Take `CCN(CC)CCCC(C)Nc1snc2ccc(Cl)cc12` (stereo not shown) [Example 10]: in data set [2] (0.32 mMole/kg), the “side effects (footnote e)” value was “skeletal muscle relaxation, hypothermia and ptosis”. Also, in data set [2] (0.64 mMole/kg), the “side effects (footnote e)” value was “skeletal muscle relaxation, hypothermia and ptosis”. Besides, in data set [2] (po), the inhibition in vivo at 80 µmol/kg stood at 0% and the inhibition in vivo at 324 µmol/kg was found to be 15%. This molecule came in with an inhibition in vivo at 320 µmol/kg in data set [2] (po, 0.32 mMole/kg) of 62%. Moreover, the inhibition in vivo at 640 µmol/kg in data set [2] (po, 0.64 mMole/kg) was found to be 50%.

In data set [2] (po, 0.064 mMole/kg), `Clc1ccc2c(NCCN3CCN(c4ccccc4)CC3)snc2c1` [Example 13, 6-chloro-3-{[2-(4-phenyl-1-piperazinyl)ethyl]amino}-2,1-benzisothiazole] registered an inhibition in vivo at 64 µmol/kg of 35%. In addition, in data set [2] (po), the inhibition in vivo at 80 µmol/kg came to 11% and the inhibition in vivo at 324 µmol/kg is 16%.

On to `CCN(CC)Cc1cc(Nc2snc3cc(Cl)ccc23)ccc1O` [Example 15, 6-chloro-3-{[3-(diethylamino)methyl-4-hydroxyphenyl]amino}-2,1-benzisothiazole], for which, in data set [2] (po, 0.32 mMole/kg), the inhibition in vivo at 320 µmol/kg came out at 30%. For the same molecule, the inhibition in vivo at 640 µmol/kg in data set [2] (po, 0.64 mMole/kg) came to 32%.
